Legend:
SOX-9 [1] = experiment: SOX-9 expression in hDPC cells under oligomer Aβ (confocal fluorescence); type: cell-based, human; conditions: hDPCs, 2 nM oligomer Aβ + 25 μg/ml compound, 3 days; for SOX-9 expression (average fluorescence intensity): normal group 220±12, oligomer Aβ control 12±4; for SOX-9 expression (confocal imaging, in words): Example 4, compared with cells treated with oligomer Aβ
Description: (§1) As in Example 2, examination was performed by using oligomer Aβ as a cytotoxic material for hDPC.
(§2) At 3 days after treatment of the derivatives, the cells were fixed with 4% paraformaldehyde solution, and washed with PBS, and then fluorescence of ROI (relative fluorescence intensity) was measured at 488 nm by a confocal microscope (CONFOCAL, LSM710, Carl Zeiss, Germany) to examine SOX-9 and Cola17a1 expressions. As in Example 2, examination was performed by using oligomer Aβ as a cytotoxic material for hDPC.
as §2, with “fluorescence” for “fluorescence of ROI (relative fluorescence intensity)”, “488 nm/565” for “488”, “hDPC. […] COL17A1 expression was inhibited in the cells (control group C) treated with the cytotoxic oligomer Aβ, as compared with the normal group.” for “hDPC.”

COL17A1 = COL17A1 expression in hDPC cells under oligomer Aβ (confocal fluorescence); type: cell-based, human; conditions: hDPCs, 2 nM oligomer Aβ + 25 μg/ml compound, 3 days; normal group 143±11, oligomer Aβ control 16±6
Description: as §1, §2
as §2, with “fluorescence” for “fluorescence of ROI (relative fluorescence intensity)”, “488 nm/565” for “488”, “hDPC. […] COL17A1 expression was inhibited in the cells (control group C) treated with the cytotoxic oligomer Aβ, as compared with the normal group.” for “hDPC.”

[2] = test system: human hair follicle dermal papilla cells (hDPCs); experiment: Cell viability (MTT) of hDPCs under oligomer Aβ-induced cytotoxicity; conditions: hDPCs treated with 2 nM oligomer Aβ and 25 μg/ml compound, 72 hours, as compared with group (N)
Description: In order to examine effects of the benzene diamine derivates of the present disclosure on improvement of cell viability of hair follicular cells, human hair follicle dermal papilla cells (hDPCs) were treated with the benzene diamine derivates, and cell viability was examined. […] Therefore, examination was performed by using oligomer Aβ as a toxic material for hDPC.
In detail, 2×10^3 hDPCs were dispensed in a multi 96-well plate containing a DMEM medium supplemented with 10% FBS, and cultured in a CO2 incubator (Thermo Scientific) at 37° C., 5% CO2 for 24 hours. Thereafter, experiments were performed by using a normal group which was treated with only cells, a control group which was a group treated with 10 μl of 2 nM oligomer Aβ (oAβ) previously synthesized, and an experimental group which is prepared by treating the normal group with the same concentration of oligomer Aβ and 25 μg/ml of each benzene diamine derivate sample in water or DMSO. To examine cell viability at 72 hours after treatment of the cell line with the sample, 20 μl of 2% MTT solution was added to the cell culture medium. 3 hours later, to terminate the reaction, the culture medium was removed by aspiration, and 50 μl of DMSO was added. 30 minutes later, the reaction was terminated. Thereafter, OD value was measured at 570 nm by using a microplate reader (BioTek, Synergy HT, USA).

[3] = test system: APP/PS/Tau mouse (hair loss-induced mouse model); experiment: Hair growth change in hair loss mouse model, oral administration; type: in vivo; conditions: APP/PS/Tau mice, oral 100 μg/Kg twice a week for 2 months
Description: An experimental group was prepared by orally administering the control group with the benzene diamine derivate at a concentration of 100 μg/Kg/0.1 ml using a zonde twice a week, and then changes in appearance were observed.
In detail, APP/PS/Tau was purchased from Jackson lab (BAR HARBOR, USA), and APP/Tau female and APP/PSen1de9 purchased from Taconic (Hudson, USA) were cross-mated for 6 generations, and 4-month-old mouse models were obtained from F1. The mouse models were characterized by appearance of hair loss. The hair loss mouse models were divided into groups of 6 mice, and among the hair loss mouse models, the normal group and the control group were orally administered with a phosphate buffer carrier (PBS) for 2 months, and the experimental group was orally administered with 100 μl of N^1-(pyridin-2-ylmethyl)benzene-1,4-diamine (Compound 1) at a concentration of 100 μg/Kg twice a week for 2 months. Thereafter, changes in their appearance were compared.

SOX-2 = SOX-2 expression in skin of hair loss mouse model, oral administration; type: in vivo; conditions: APP/PS/Tau mice, oral 100 μg/Kg twice a week, 2 months
Description: (§3) Accordingly, the present inventors examined whether expressions of hair growth stimulating factors, SOX-2 and SOX-9 were increased in hair loss animal models by the benzene diamine derivates of the present disclosure. In order to examine SOX-2 and SOX-9 expressions inside skin tissues, APP/PS/Tau mouse which is a hair loss-induced mouse model was selected as a control group and C57BL6 mouse was selected as a normal group, as in Example 5. An experimental group was prepared by orally administering the control group with the benzene diamine derivate at a concentration of 100 μg/Kg/0.1 ml using a zonde twice a week. 2 months later, incision of the skin was performed under local anesthesia, and the skin tissues were fixed in 4% paraformaldehyde solution for 24 hours, and fixed in a plastic mold with O.C.T. Compound (SAKURA, USA) for cryostat sectioning. […] Thereafter, the plate was put on a slide glass and covered with a cover slide, and stored in a dark acrylic box, and fluorescence imaging was observed under a confocal microscope (LSM710, Carl Zeiss, Germany) by 405/488/565 nm laser. […]

SOX-9 [4] = experiment: SOX-9 expression in skin of hair loss mouse model, oral administration; type: in vivo; conditions: APP/PS/Tau mice, oral 100 μg/Kg twice a week, 2 months
Description: as §3

monomer/oligomer Aβ = experiment: Monomer/oligomer Aβ expression in skin of hair loss mouse model, oral administration; type: in vivo; conditions: APP/PS/Tau mice, oral 100 μg/Kg twice a week, 2 months

SMILES | SOX-9 expression (average fluorescence intensity) (SOX-9 [1]) [AFI] | COL17A1 expression (average fluorescence intensity) (COL17A1) [AFI] | cell viability [2] [%] | hair loss (changes in appearance) [3] | SOX-2 expression in skin (SOX-2) | SOX-9 expression in skin (SOX-9 [4]) | monomer/oligomer Aβ expression in skin (monomer/oligomer Aβ) | SOX-9 expression (confocal imaging, in words) (SOX-9 [1])
c1ccc(CNc2ccc(N3CCOCC3)cc2)nc1 [Compound 2, 4-morpholino-N-(pyridin-2-ylmethyl)aniline] | 187±23 | 234±31 | 87±5 | – | – | – | – | –
CN(C)c1ccc(N)cc1 [Compound 3, N^1,N^1-dimethyl-1,4-phenylenediamine] | 157±21 | 24±6 | – | – | – | – | – | –
CC(=O)Nc1ccc(NC(C)=O)cc1 [Compound 6, N,N-(1,4-phenylene)diacetate Amide] | 267±56 | 226±34 | 86±1 | – | – | – | – | –
Nc1ccc(NCc2ccccn2)cc1 [Compound 1, N^1-(pyridin-2-ylmethyl)benzene-1,4-diamine] | 134±23 | 152±13 | 82±2 | remarkable improvement in hair loss | remarkably expressed close to the normal group | remarkably increased | decreased | –
CC(=O)Nc1ccc(N(C)C)cc1 [Compound 4, N-(4-dimethylamino)phenyleneacetamide] | 446±110 | 2±1 | 74±3 | – | – | – | – | more strongly promoted the expression
CC(=O)Nc1ccc(N)cc1 [Compound 5, N-(4-aminophenyl)acetamide] | 325±45 | 3±1 | 77±1 | – | – | – | – | more strongly promoted the expression

Source: patent publication US10611720B2, “Composition for preventing or treating hair loss including benzene diamine derivative” (UNIST(ULSAN NATIONAL INSTITUTE OF SCIENCE AND TECHNOLOGY), priority 2017, dated 2020)
